Tested on: Hsp90
Experiment: Hsp90 binning reporter assay
Assay type: cell-based
Details: Saccharomyces cerevisiae, read-out: Hsp90 pathway inhibition IC50
Procedure: Corning white, 384-well plates were obtained from Corning (Catalog No. 8867BC; Lot No. 22609019). Tropix Gal-Screen was obtained from Applied Biosystems (Catalog No. T2359; Lot No. 0903044).
SD Growth Media was obtained from MP Biomedical (Catalog No. 4027-012; Lot No. 119458). Complete Supplement minus adenine was obtained from Sunrise Science (Catalog No. 1029-100; Lot No. 070409). Deoxycorticosterone (DOC) steroid was obtained from Sigma. To prepare the assay media, 100 ml (20% (w/v) dextrose and 780 mg Complete Supplement) was added to 100 ml SD Growth Media. Water was added to a final volume of 1 liter, and the solution was filter sterilized.
For DOC media, 1 ml DOC was added to 100 ml SD-ADE media.
The following test strain was used in this study: Saccharomyces cerevisiae W303 reporter strain (ATCC 201238). […]
The OD 600 of 1 ml of culture in a cuvette was read using a standard optical density reader with growth medium as a background blank. […] Luminescence of the wells was read on a standard plate reader as a measure of relative fungal growth. Envision (Perkin Elmer) plate reader set-up: Top read; Luminescence filter (560 nm) at 0.1 seconds.
Potential inhibition of the Hsp90-based chaperone machinery was evaluated using yeast reporter assays involving the glucocorticoid hormone receptor and the tyrosine kinase, v-Src. […]

Compound `COC(=O)Cn1nc(-c2cccc(OC)c2)c2ccccc21` [Compound I-4, methyl 2-(3-(3-methoxyphenyl)-1H-indazol-1-yl)acetate] has an IC50 of 4.18 µM.

From patent publication US9738610B2, “Indazole derivatives and uses thereof” (Whitehead Institute for Biomedical Research, priority 2012, dated 2017)
